Key:
[1] = system: Delayed type hypersensitivity (DTH) reaction; assay: Delayed type hypersensitivity in mice (KLH, ear thickness); type: in vivo
Source text: The Delayed type hypersensitivity (DTH) reaction is observed when subjects are immunized with an antigen, and then subsequently challenged with the same antigen to induce a localized inflammation. The model can be inhibited by drugs affecting a range of immune and inflammatory mechanisms. In this instance, a DTH reaction is induced in mice using Keyhole Limpet Hemocyanin (KLH), measuring inflammation in the ear pinna. Keyhole Limpet Hemocyanin (KLH; Sigma, catalogue number H7017) preparation: […] Aliquots were stored at −20° C. For the first immunization (day 0) the KLH stock solution (10 mg/ml) was diluted to 0.5 mg/ml with PBS (1:20). Then a 1:1 mixture with Complete Freund's Adjuvant (CFA; Sigma catalogue number 5881) was prepared (final KLH concentration 0.25 mg/ml). For the second immunization (day 5) the KLH stock solution was diluted to 1 mg/ml with 0.9% NaCl (1:10). Mice (Balb/c ˜9 weeks of age) were immunized with 2×100 μl of a 1:1 emulsion of KLH in CFA (25 μg KLH/site) injected subcutaneously into the right and left flank. On day 5 post-injection, mice received a challenge of 10 μg KLH (in 10 μl physiological saline), injected intradermally into the right ear. On day 5, 6 and 7 the ear thickness was measured with a caliper. Measurements were performed one hour after compound administration in the morning. Compound CZC1 corresponding to example 34 of the present invention was dosed once daily orally (p.o.) from day 0 to day 7 (Table 10). Vehicle: 0.5% carboxymethylcellulose (CMC). Doses: 3, 10 and 30 mg/kg. Cyclosporine A (Calbiochem) was dosed twice daily orally (p.o., 8 am and 4 pm from day 0 to day 7). Vehicle: 5% DMSO, 0.5 CMC. Dose: 25 mg/kg. Control treatment: 5% DMSO, 0.5% CMC administered p.o. [table]

[2] = system: Salmonella typhimurium strain TA98; assay: Ames plate assay, TA98
Description: Certain compounds of the invention were tested for their potential to induce gene mutations in bacterial strains of Salmonella typhimurium (strains TA1535, TA1537, TA98, TA100) and Escherichia coli (strain WP2uvrA(pKM101)) in a bacterial mutation assay in the absence and presence of metabolite activation (rat S9-mix). Compounds are tested at the following dose levels: 50, 150, 500, or 1500 μg/plate.
Vehicle control treatment is the vehicle used to prepare the test compound formulation diluted to the same extent as the test compound solution. Positive controls using known mutagens are included for each strain with and without rat S9 mix. Four plates are used for the vehicle control and two replicate plates per dose per strain for the treated groups and for each positive control. At the end of incubation the number of revertant colonies per plate are recorded and mean values calculated for each vehicle control, positive control and concentration of test compound used. Results are also expressed as a ratio of the mean values to the mean concurrent vehicle control value (i.e. fold increase).

CCOC(=O)N1Cc2nc(-c3ccc(NC(=O)NC4CC4)cc3)nc(N3CCOC[C@@H]3C)c2C1 [Example 34, (S)-ethyl 2-(4-(3-cyclopropylureido)phenyl)-4-(3-methylmorpholino)-5H-pyrrolo[3,4-d]pyrimidine-6(7H)-carboxylate]
increase in ear thickness ([1]; 3 mg/kg p.o. once daily day 0 to day 7, 24 hours post-challenge): significantly reduced | increase in ear thickness ([1]; 10 mg/kg p.o. once daily day 0 to day 7, 24 hours post-challenge): significantly reduced | increase in ear thickness ([1]; 30 mg/kg p.o. once daily day 0 to day 7, 24 hours post-challenge): significantly reduced | Ames plate assay TA98 +S9 ([2]; TA98, +S9, 50 μg/Plate): − | Ames plate assay TA98 +S9 ([2]; TA98, +S9, 150 μg/Plate): − | Ames plate assay TA98 +S9 ([2]; TA98, +S9, 500 μg/Plate): − | Ames plate assay TA98 +S9 ([2]; TA98, +S9, 1500 μg/Plate): − | Ames plate assay TA98 −S9 ([2]; TA98, −S9, 50 μg/Plate): − | Ames plate assay TA98 −S9 ([2]; TA98, −S9, 150 μg/Plate): − | Ames plate assay TA98 −S9 ([2]; TA98, −S9, 500 μg/Plate): − | Ames plate assay TA98 −S9 ([2]; TA98, −S9, 1500 μg/Plate): −

From patent US8785457B2 (Cellzome Limited, priority 2009, dated 2014)
